Test results from ChEMBL document CHEMBL1201862, “PubChem BioAssay data set” (2004).
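Values below derive from 48-hour exposures of cells grown in 96-well plates, with endpoints linearly interpolated between the two concentrations bracketing the appropriate inhibition level. Here, GI50 denotes the concentration required for 50% inhibition of growth.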 Active and inactive are the calls of the source. Cut-off read from the data, not from the text of the source: active = GI50 up to about 1.1 µM and inactive = higher.

Legend:
Assay in all cases: NCI-60 cell line screen, 48 h
[1] = system: HCT-116
[2] = system: K562
[3] = system: UACC-62
[4] = system: KM12
[5] = system: IGROV-1
[6] = system: 786-0
[7] = system: COLO 205
[8] = system: SNB-78
[9] = system: UO-31
[10] = system: NCI-H522
[11] = system: SF-268
[12] = system: HOP-92
[13] = system: SNB-19
[14] = system: OVCAR-3
[15] = system: HOP-62
[16] = system: ACHN
[17] = system: OVCAR-4
[18] = system: SNB-75

Measured: GI50

CC(C)c1cccc(C(C)C)c1NC1=CC(=O)C(=O)c2ccccc21
inactive: [1] > 100 µM | [2] > 100 µM | [3] > 100 µM | [4] > 100 µM | [5] > 100 µM | [6] > 100 µM | [7] > 100 µM | [8] > 100 µM | [9] > 100 µM | [10] 58.6 µM | [11] > 100 µM | [12] > 100 µM | [13] > 100 µM | [14] > 100 µM | [15] > 100 µM

COC(=O)C(=O)C(C(=O)C(=O)Nc1cccc(C(C)=O)c1)c1nc2ccc([N+](=O)[O-])cc2nc1O (stereo unspecified)
inactive: [1] > 100 µM | [2] > 100 µM | [3] > 100 µM | [4] > 100 µM | [5] > 100 µM | [6] > 100 µM | [7] > 100 µM | [8] > 100 µM | [9] > 100 µM | [10] > 100 µM | [11] > 100 µM | [12] > 100 µM | [13] > 100 µM | [16] > 100 µM | [15] > 100 µM | [17] > 100 µM

FC(F)(F)c1nc(Br)[nH]c1C(F)(F)F
inactive: [1] 45.7 µM | [2] 43 µM | [3] 37.6 µM | [4] > 100 µM | [5] > 100 µM | [18] > 100 µM | [6] > 100 µM | [7] > 100 µM | [8] > 100 µM | [9] > 100 µM | [11] > 100 µM | [12] 27.8 µM | [13] > 100 µM | [16] > 100 µM | [14] 60.4 µM | [15] 32 µM | [17] > 100 µM

O=C(O)/C(=C/C=C/c1ccccc1)c1csc(-c2nc(/C(=C\C=C\c3ccccc3)C(=O)O)cs2)n1
inactive: [1] 17.7 µM | [2] 21.9 µM | [3] 28.8 µM | [4] 27.9 µM | [5] 32.7 µM | [18] 28.1 µM | [6] 23.2 µM | [7] 22.3 µM | [8] 27.2 µM | [9] 18.5 µM | [11] 30.7 µM | [12] 19.6 µM | [13] 11.5 µM | [16] 28 µM | [14] 23.4 µM | [15] 18 µM

C/C(COc1ccccc1)=N\NC(N)=S
inactive: [1] > 100 µM | [2] > 100 µM | [3] > 100 µM | [4] 68.1 µM | [5] > 100 µM | [18] > 100 µM | [6] > 100 µM | [7] > 100 µM | [8] > 100 µM | [9] > 100 µM | [11] > 100 µM | [12] > 100 µM | [16] > 100 µM | [14] > 100 µM | [15] > 100 µM | [17] > 100 µM

Cc1ccc(NC(=O)CCC(=O)C2CC(=O)CCC2=O)cc1C (stereo unspecified)
inactive: [1] > 100 µM | [2] > 100 µM | [3] > 100 µM | [4] > 100 µM | [5] > 100 µM | [6] > 100 µM | [7] > 100 µM | [8] > 100 µM | [9] > 100 µM | [11] > 100 µM | [12] 76.4 µM | [13] > 100 µM | [16] > 100 µM | [14] > 100 µM | [15] > 100 µM | [17] > 100 µM
